Experimental data from patent publication US20130065964A1, “PERITONEAL DIALYSIS SOLUTION” (UNIVERSIDAD DE CASTILLA LA MANCHA, priority 2010, published 2013).

Assays:
Assay type in all cases: cell-based
[1] = system: rat peritoneal mesothelial cells; assay: Cytotoxicity study, LDH release; details: rat PMCs, 72 hours, FIG. 5
Experimental: The cells were treated with carrier or aliskiren for 72 hours and cell viability was evaluated quantifying the LDH released into the culture medium. The data is expressed as mean±SEM, n=12. * p<0.05 compared to the control (carrier).
(§1) Rat peritoneal mesothelial cells were isolated by enzymatic digestion in accordance with protocols described in Hjelle J T, Golinska B T, Waters D C, et al. Perit Dial Int 1989; 9: 341-7. Briefly, female rats weighing 200-400 g of the Spragle-Dawley strain were sacrificed pursuant to Royal Decree 1201/2005, of 10 Oct., on protection of animals used for experimental and other scientific purposes. The abdominal cavity was quickly opened and the abdominal wall (peritoneum and smooth muscle) extracted under sterile conditions. […]
To this end, the cells were seeded on 24-well plates and exposed to the peritoneal dialysis solutions object of the present invention to study their toxicity. The toxic effects were evaluated measuring cell membrane rupture and the consequent release of LDH to the supernatant through the CytoTox96® kit (Promega). […] Absorbance of the lysate and cell supernatant was obtained using a microplate spectrophotometer at a wavelength of 490 nm, following the manufacturer's instructions.

[2] = system: Collagen I; assay: Real-time RT-PCR in cultured PMCs exposed to PDF; details: rat PMCs, 1.5% PDF diluted 1:1 in culture medium, 24 hours, aliskiren 10-100 μM, FIG. 9
Experimental: (§2) After incubating the rat PMCs in 1.5% PDF diluted 1:1 in culture medium for 24 hours, in the presence or absence of carrier or different concentrations of aliskiren (10-100 μM), total RNA was isolated and real-time RT-PCR was carried out as described in Material and Methods. The data is expressed as mean±SEM, n=3. * p<0.05 compared to untreated cells (control). # p<0.05, compared to cells treated with 1.5% PDF in the presence of carrier (0).
(§3) Rat peritoneal mesothelial cells were isolated by enzymatic digestion in accordance with protocols described in Hjelle J T, Golinska B T, Waters D C, et al. Perit Dial Int 1989; 9: 341-7. […]
(§4) The RNA expression was evaluated by real-time RT-PCR in PMCs. […] RNA quality and concentration was evaluated by spectrophotometry (Infinite 200, Tecan, Salzburg, Austria) using 1 μl of the RNA sample. […] The dissociation curves were analysed to confirm the amplification of a single PCR product. […] In each experiment, the mean cycle threshold (CT) was calculated from triplicates for each of the genes studied, enabling comparison of the gene expression after different treatments (Methods 25, 402-408 (2001). In order to normalize the data, the gene expression of β-actin was used as endogenous control.

[3] = system: fibronectin; assay: Real-time RT-PCR in cultured PMCs exposed to PDF; details: rat PMCs, 1.5% PDF diluted 1:1 in culture medium, 24 hours, aliskiren 10-100 μM, FIG. 11
Experimental: as §2, §3, §4

[4] = system: reactive oxygen species (ROS) in rat PMCs; assay: Reactive oxygen species by flow cytometry (DCF); details: D-glucose 50 mM and 83 mM, 8 hours, aliskiren 10-100 μM, FIG. 6
Experimental: The cells were incubated in D-glucose at 50 mM (A) and 83 mM (B) for 8 hours in the presence or absence of aliskiren (10-100 μM) and dichlorofluorescein (DCF) intensity was measured using flow cytometry, as described in Material and Methods. The data is expressed as mean±SEM, n=3. * p<0.05 compared to untreated cells (control). # p<0.05, compared to cells treated with D-glucose in the presence of carrier (0).
as §1
After washing with PBS, the cells were incubated with 5.6-chloromethyl-2,7-dichlorodihydrofluorescein diacetate (CM-H2DCFDA, Invitrogen) for 15 minutes at 37° C., following the standard protocol (Lee H B, 2004). […] The production of reactive oxygen species was calculated on the basis of evaluation of 10,000 cells per experimental condition.

`COCCCOc1cc(C[C@@H](C[C@H](N)[C@@H](O)C[C@H](C(=O)NCC(C)(C)C(N)=O)C(C)C)C(C)C)ccc1OC` [aliskiren] was tested, and the “concentration at which toxicity with respect to mesothelial cells is shown (LDH released)” value [1] was no less than 1 mM, the “RNAm levels for collagen I” value [2] was “lowered” and the “RNAm levels for fibronectin” value [3] was “lowered”. The “production of reactive oxygen species” value [4] was “prevented”.
